Values of other authors in US20050065088A1, “Pharmaceutical compositions and methods comprising combinations of 2-alkylidene-19-nor-vitamin D derivatives and parathyroid hormone” (Pfizer Inc., priority 2003, published 2005).

Columns and labels:
[1] = test system: intestinal calcium transport; details: chronic dosing 7 days, 130 or 260 pmol dose (1,25-(OH)2D3 only 260 pmol/day)
[2] = test system: HL-60 cells; details: result in words
[3] = test system: serum calcium (bone calcium mobilization); details: for selectivity bone calcium mobilization versus intestinal calcium transport, in words / bone calcium mobilization, result in words: chronic dosing 7 days; for bone calcium mobilization, result in words: 130 and 260 pmol/day

Structure (SMILES)	intestinal calcium transport, result in words [1]	inducing differentiation of HL-60 cells to the monocyte [2]	selectivity bone calcium mobilization versus intestinal calcium transport, in words [3]	bone calcium mobilization, result in words [3]	bone calcium mobilization activity relative to 1,25-(OH)2D3 ([3]; chronic dosing, 7 days, 'likely to be')	activity on bone calcium mobilization (serum calcium) relative to the native hormone ([3]; 130 pmol/day, 7 days, 'at least 10 and possible 100-1,000 times')
C=C1/C(=C\C=C2/CCC[C@]3(C)[C@@H]([C@H](C)CCCC(C)(C)O)CC[C@@H]23)C[C@@H](O)C[C@@H]1O [1,25-(OH)2D3, 1,25-dihydroxyvitamin D3, reference compound]	expected elevation					
C=C1[C@H](O)CC(=C/C=C2\CCC[C@]3(C)[C@@H]([C@H](C)CCCC(C)(C)O)CC[C@@H]23)C[C@H]1O [2-Methylene-19-Nor-1,25-(OH)2D3, 1α,25-dihydroxy-2-methylene-19-nor-vitamin D3]	no intestinal calcium transport activity	activity similar to 1,25-(OH)2D3	selective for the mobilization of calcium from bone	extremely strong bone calcium mobilization	10-100 times	
C=C1[C@H](O)CC(=C/C=C2\CCC[C@]3(C)[C@@H]([C@@H](C)CCCC(C)(C)O)CC[C@@H]23)C[C@H]1O [2-Methylene-19-Nor-20S-1,25-(OH)2D3, (20S)-1α,25-dihydroxy-2-methylene-19-nor-vitamin D3]	no significant change	extremely potent	selective for the mobilization of calcium from bone	most potent compound tested		at least 10 times
